This note sets out measurements from US10377746B2, “Indolin-2-one derivatives” (Hoffmann-La Roche Inc., priority 2015, dated 2019).

Test [1] has as its target mouse ENT-1 transporter (Mus musculus (Mouse), UniProt Q9JIM1). The test is described as follows: Determination of adenosine transport activity (ENT1, [3H]-adenosine uptake). Format: cell-based. As to conditions: stable cells expressing mouse ENT-1; [2,8-3H]-adenosine 6 nM, 20 min. As for the experimental part:
To measure adenosine transport activity of ENT-1 mammalian cells, stable cells expressing the mouse ENT-1 transporter were plated on day 1 in 96-well culture plates at the density of 60,000 cells/well, in complete DMEM/F12 medium supplemented with glutamax, 10% FBS and 10 μg/ml puromycin. On day 2, the medium was aspirated and the cells were washed twice with uptake buffer (10 mM Hepes-Tris, pH 7.4 containing 150 mM NaCl, 1 mM
CaCl2, 2.5 mM KCl, 2.5 mM MgSO4, 10 mM D-glucose) (UB). For inhibition experiments, cells were then incubated at RT with various concentrations of compounds with 1% DMSO final. Non-specific uptake was defined in the presence of 10 μM S-(4-Nitrobenzyl)-6-thioinosine (NBTI, Sigma Cat #N2255).
A solution containing [2,8-^3H]-adenosine 6 nM (40 Ci/mmol, American Radiolabeled chemicals Inc, Cat #ART 0287A) was then immediately added to the wells. The plates were then incubated for 20 min with gentle shaking and the reaction was stopped by aspiration of the mixture and washing (three times) with ice-cold UB. The cells were lysed by the addition of scintillation liquid, shaken 3 hours and the radioactivity in the cells was estimated using a microplates scintillation counter (TopCount NXT, Packard).

Test [2] concerns L-687,414-induced hyperlocomotion. Put plainly: L-687,414-induced hyperlocomotion. Format: in vivo, mouse. As to conditions: mice; 30 mg/kg ip, 15 min before 50 mg/kg s.c. L-687,414. As for the experimental part:
The described compounds of formula I reduce L-687,414-induced hyperlocomotion. This was assessed by using a computerized Digiscan 16 Animal Activity Monitoring System (Omnitech Electronics, Columbus, Ohio) to quantify locomotor activity. Animals were kept under a 12 h light/dark cycle and experiments were performed during the light period. Each activity monitoring chamber consisted of a Plexiglas box (41×41×28 cm; W×L×H) with sawdust bedding on the floor surrounded by invisible horizontal and vertical infrared sensor beams. The test boxes were divided by a Plexiglas cross providing each mouse with 20×20 cm of moving space. Cages were connected to a Digiscan Analyzer linked to a computer that constantly collected the beam status information. Records of photocell beam interruptions for individual animals were taken every 5 min over the duration of the experimental session and the sum of the first 6 periods was used as the final parameter. At least 8 mice were used in each treatment group. Compounds were administered i.p. 15 min before a s.c. injection of 50 mg/kg of L-687,414. Mice were then transferred from their home cage to the recording chambers for a 15-min habituation phase allowing free exploration of the new environment. Horizontal activity was then recorded for a 30-min time period. The % inhibition of L-687,414-induced hyperlocomotion was calculated according to the equation: ((Veh+L-687,414horizontal activity−drug+L-687,414horizontal activity)/Veh+L-687,414horizontal activity)×100
ID50 values, defined as doses of each compound producing 50% inhibition of L-687,414-induced hyperlocomotion, were calculated by linear regression analysis of a dose-response data using an Excel-based computer-fitting program.
As data was not presupposed to be normally distributed, groups treated with test compounds were statistically compared with the control (vehicle-treated) group using one-tailed Mann Whitney U tests. […]

The subject of test [3] is behavioral signature of compound-treated mice. The test is described as follows: SmartCube behavioral signature similarity analysis. Type of test: in vivo, mouse. The settings on record: for SmartCube similarity to major classes of compounds: i.p., in words; for discrimination rate vs Clozapine (1.0 mg/kg) / discrimination rate vs Olanzapine (0.25 mg/kg) / discrimination rate vs Risperidone (0.06 mg/kg): rate <=0.70 = similar. From the text: In addition to the reversal of L-687,414 induced hyperlocomotion experiment as described above, some compounds of the present invention have been tested in SmartCube®, an automated system in which the behaviors of compound-treated mice in response to multiple challenges are captured by digital video and analyzed with computer algorithms (Roberds et al., Frontiers in Neuroscience, 2011, Vol. 5, Art. 103, 1-4; Vadim Alexandrov, Dani Brunner, Taleen Hanania, Emer Leahy Eur. J. Pharmacol. 2015, 750, 82-99). In this way, the neuro-pharmacological effects of a test compound can be predicted by similarity to major classes of compounds, such as antipsychotics, anxiolytics and antidepressants.
SmartCube® was used to compare the behavioral signature of a test compound to a database of behavioral signatures obtained from a large set of clinically approved reference drugs, grouped per indications. In this way, the neuro-pharmacological effects of a test compound can be predicted by similarity to major classes of compounds, such as antipsychotics, anxiolytics and antidepressants. This approach is ideally suited to screen collections of existing drugs or drug candidates with previously unknown neuropharmacology, which could expedite the development of new and unexpected treatments for psychiatric disorders.
Some compounds of the present invention were injected i.p. at different doses 15 minutes before the test. At least 8 mice were used in each treatment group. Digital videos of the subjects were processed with computer vision algorithms to extract over 2000 dependent measures including frequency and duration of many different behavioral states. The results of the classifications are presented as bar charts for each compound and dose (mg/kg), the Y-axis indicates the relative probability that the test compound will show efficacy in the specific CNS indication.
Compounds of the present invention show similar signatures to those of atypical antipsychotics. An independent analysis was performed on the unclassified data to determine the similarity of the example compounds to active doses of known atypical antipsychotics. For this analysis, we use discrimination rate as the measure of separability between the two drugs, i.e. one drug's “distinguishability” from another. A rate equal to 50% (or 0.5) corresponds to zero distinguishability. […] In most cases, the example compounds show a similarity to risperidone, clozapine and olanzapine with a discrimination rate of ≤0.70.

mouse ENT-1 transporter, sequence (Q9JIM1 whole entry): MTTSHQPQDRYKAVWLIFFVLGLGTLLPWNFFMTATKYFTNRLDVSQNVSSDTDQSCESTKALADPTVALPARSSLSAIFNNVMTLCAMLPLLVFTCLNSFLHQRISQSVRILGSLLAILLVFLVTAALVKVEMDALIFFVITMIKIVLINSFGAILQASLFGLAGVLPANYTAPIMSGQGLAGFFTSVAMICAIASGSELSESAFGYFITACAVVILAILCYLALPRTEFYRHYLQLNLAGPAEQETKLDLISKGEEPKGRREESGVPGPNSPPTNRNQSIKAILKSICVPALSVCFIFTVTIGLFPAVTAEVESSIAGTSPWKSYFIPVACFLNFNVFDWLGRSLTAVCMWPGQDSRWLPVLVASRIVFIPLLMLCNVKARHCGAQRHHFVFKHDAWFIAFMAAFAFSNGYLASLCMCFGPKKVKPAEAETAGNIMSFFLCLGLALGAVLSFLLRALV

Broadly, the IC50 is the concentration at which inhibition is half-maximal. Read a low IC50 as greater potency in that assay. In test [1], `CNS(=O)(=O)c1cncc(N2C(=O)C(C)(C)c3ccc(-c4cnc(C)nc4)cc32)c1` [Example 13, 5-(3,3-Dimethyl-6-(2-methylpyrimidin-5-yl)-2-oxoindolin-1-yl)-N-methylpyridine-3-sulfonamide] had an IC50 of 71.7 nM.

Take `Cc1ncc(-c2ccc3c(c2)N(c2ccc4ccsc4c2)C(=O)C3(C)C)cn1` [Example 1, 1-(Benzo[b]thiophen-6-yl)-3,3-dimethyl-6-(2-methylpyrimidin-5-yl)indolin-2-one]: half-maximal inhibition in test [1] (IC50) was put at 189 nM.

In test [1], `Cc1ncc(-c2ccc3c(c2)N(c2cncc(S(=O)(=O)N4CCC4)c2)C(=O)C3(C)C)cn1` [Example 11, 1-(5-(Azetidin-1-ylsulfonyl)pyridin-3-yl)-3,3-dimethyl-6-(2-methylpyrimidin-5-yl)indolin-2-one] had an IC50 of 169 nM.

For `Cc1cncc(-c2ccc3c(c2)N(c2cncc(S(C)(=O)=O)c2)C(=O)C3(C)C)c1` [Example 16, 3,3-Dimethyl-6-(5-methylpyridin-3-yl)-1-(5-(methylsulfonyl)pyridin-3-yl)indolin-2-one], 313 nM corresponded to half-maximal inhibition in test [1] (IC50).

Turning to `Cc1ncc(-c2ccc3c(c2)N(c2cncc(S(C)(=O)=O)c2)C(=O)C3(C)C)cc1F` [Example 17, 6-(5-Fluoro-6-methylpyridin-3-yl)-3,3-dimethyl-1-(5-(methylsulfonyl)pyridin-3-yl)indolin-2-one], the IC50 in test [1] was found to be 27 nM.

`Cc1ncc(-c2ccc3c(c2)N(c2cncc(S(C)(=O)=O)c2)C(=O)C32CCC2)cn1` [Example 20, 6′-(2-Methylpyrimidin-5-yl)-1′-(5-(methylsulfonyl)pyridin-3-yl)spiro[cyclobutane-1,3′-indolin]-2′-one] had an IC50 in test [1] of 230 nM.

In test [1], `Cc1ncc(-c2ccc3c(c2)N(c2cnc(S(C)(=O)=O)cn2)C(=O)C3(C)C)cn1` [Example 18, 3,3-Dimethyl-6-(2-methylpyrimidin-5-yl)-1-(5-(methylsulfonyl)pyrazin-2-yl)indolin-2-one] registered an IC50 of 27 nM.

With `Cc1ncc(-c2ccc3c(c2)N(c2cncc(S(C)(=O)=O)c2)C(=O)C3(C)C)cn1` [Example 3, 3,3-Dimethyl-6-(2-methylpyrimidin-5-yl)-1-(5-(methylsulfonyl)pyridin-3-yl)indolin-2-one], the “Inhibition, ip of L-687,414-induced hyperlocomotion” value in test [2] is given as 92.8%. The IC50 in test [1] worked out at 32.1 nM. In test [3], the “SmartCube similarity to major classes of compounds” value was “similarity to atypical antipsychotics”. In test [3] (test compound 3 mg/kg i.p.), the “discrimination rate vs Clozapine (1.0 mg/kg)” value was found to be 0.58, the “discrimination rate vs Olanzapine (0.25 mg/kg)” value amounted to 0.60 and the “discrimination rate vs Risperidone (0.06 mg/kg)” value is on record as 0.67.

`Cc1ncc(-c2ccc3c(c2)N(c2cncc(S(C)(=O)=O)n2)C(=O)C3(C)C)cn1` [Example 4, 3,3-Dimethyl-6-(2-methylpyrimidin-5-yl)-1-(6-(methylsulfonyl)pyrazin-2-yl)indolin-2-one] yielded an IC50 in test [1] of 40.1 nM.

In test [1], `Cc1ncc(-c2ccc3c(c2)N(c2cncc(S(N)(=O)=O)c2)C(=O)C3(C)C)cn1` [Example 10, 5-(3,3-Dimethyl-6-(2-methylpyrimidin-5-yl)-2-oxoindolin-1-yl)pyridine-3-sulfonamide] displayed an IC50 of 128 nM.

Turning to `Cc1ncc(-c2ccc3c(c2)N(c2cccc(S(C)(=O)=O)c2)C(=O)C3(C)C)cn1` [Example 5, 3,3-Dimethyl-6-(2-methylpyrimidin-5-yl)-1-(3-(methylsulfonyl)phenyl)indolin-2-one], the “Inhibition, ip of L-687,414-induced hyperlocomotion” value in test [2] came out at 96%. Also, the IC50 in test [1] is 106 nM. Also, the “SmartCube similarity to major classes of compounds” value in test [3] is “similarity to atypical antipsychotics”. Besides, in test [3] (test compound 5 mg/kg i.p.), the “discrimination rate vs Clozapine (1.0 mg/kg)” value came to 0.55, the “discrimination rate vs Olanzapine (0.25 mg/kg)” value is 0.54 and the “discrimination rate vs Risperidone (0.06 mg/kg)” value is reported as 0.52.

For `Cc1ncc(-c2ccc3c(c2)N(c2cnc(C4CC4)c(S(C)(=O)=O)c2)C(=O)C3(C)C)cn1` [Example 14, 1-(6-Cyclopropyl-5-(methylsulfonyl)pyridin-3-yl)-3,3-dimethyl-6-(2-methylpyrimidin-5-yl)indolin-2-one], in test [1], the IC50 stood at 38.5 nM.

In test [1], `Cc1ncc(-c2ccc3c(c2)N(c2cncc(S(=O)(=O)C(C)C)c2)C(=O)C3(C)C)cn1` [Example 7, 1-(5-(Isopropylsulfonyl)pyridin-3-yl)-3,3-dimethyl-6-(2-methylpyrimidin-5-yl)indolin-2-one] returned an IC50 of 135 nM.

Compound `Cc1ncc(-c2ccc3c(c2)N(c2cncc(S(=O)(=O)N(C)C)c2)C(=O)C3(C)C)cn1` [Example 6, 5-(3,3-Dimethyl-6-(2-methylpyrimidin-5-yl)-2-oxoindolin-1-yl)-N,N-dimethylpyridine-3-sulfonamide] had an IC50 in test [1] of 44.9 nM.

Take `COCCN(C)S(=O)(=O)c1cncc(N2C(=O)C(C)(C)c3ccc(-c4cnc(C)nc4)cc32)c1` [Example 12, 5-(3,3-dimethyl-6-(2-methylpyrimidin-5-yl)-2-oxoindolin-1-yl)-N-(2-methoxyethyl)-N-methylpyridine-3-sulfonamide]: it took 79.3 nM to reach half-maximal inhibition in test [1] (IC50).

Compound `CSc1cncc(N2C(=O)C(C)(C)c3ccc(-c4cnc(C)nc4)cc32)c1` [Example 9, 3,3-Dimethyl-6-(2-methylpyrimidin-5-yl)-1-(5-(methylthio)pyridin-3-yl)indolin-2-one] yielded an IC50 in test [1] of 218 nM.

As for `Cc1ncc(-c2ccc3c(c2)N(c2cncc(S(=O)(=O)C4CC4)c2)C(=O)C3(C)C)cn1` [Example 8, 1-(5-(Cyclopropylsulfonyl)pyridin-3-yl)-3,3-dimethyl-6-(2-methylpyrimidin-5-yl)indolin-2-one], the IC50 in test [1] is 40 nM.

For the compound “3,3-Dimethyl-6-(2-methyl-1-oxidopyrimidin-1-ium-5-yl)-1-(6-methylsulfonylpyrazin-2-yl)indol-2-one [Example 15]”, in test [1], the IC50 came out at 218 nM.

For `Cc1ncc(-c2ccc3c(c2)N(c2cccc4sccc24)C(=O)C3(C)C)cn1` [Example 2, 1-(Benzo[b]thiophen-4-yl)-3,3-dimethyl-6-(2-methylpyrimidin-5-yl)indolin-2-one], in test [1], the IC50 turned out to be 844 nM.
